Laboratory results published in patent US20220202905A1, “COMPOSITION FOR PREVENTING OR TREATING NEUROTROPHIC KERATITIS WHICH CONTAINS PACAP PEPTIDE OR STABILIZED PACAP PEPTIDE” (SENJU PHARMACEUTICAL CO., LTD., priority 2019, published 2022).
Square brackets hold non-standard residues; d marks the D form. Peptide text beside a SMILES is read from it. Ala(1H-tetrazol-5-yl) = N[C@@H](Cc1nnn[nH]1)C(=O)O

Assays:
[1] = Peptide stability test, Tris buffer (pH 7.0), 60° C. storage, HPLC remaining rate; type: physicochemical; conditions: Table 6; 100 μM in Tris buffer pH 7.0; HPLC conditions 2
Summary of the method: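 Peptides at 100 μM in Tris buffer (pH 7.0) stored 1 or 2 weeks at 60° C.; unstored sample kept at −30° C. as initial reference. Remaining peptide quantified by reversed-phase HPLC at 220 nm (formic acid/acetonitrile gradient, 40° C. column), as water-corrected remaining rate.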

[2] = Peptide stability test, phosphate buffer (pH 7.0), 40° C. storage, HPLC remaining rate; type: physicochemical; conditions: Table 4; 100 μM in phosphate buffer pH 7.0; HPLC conditions 1
Method: Peptides 1 and 3 to 5 synthesized in Example 2 were weighed and dissolved in phosphate buffer (pH 7.0) to prepare 1.0 mM peptide solutions. The 1.0 mM peptide solutions were then diluted with phosphate buffer to 100 μM. After filtering with Chromatdisk (product of Merck Millipore, Millex-GV, 0.22 μm), each filtrate was dispensed into an LC vial (Waters Deactivated […] prepared peptide solutions were incubated for one month or 2 months in a 40° C. thermostatic bath to obtain stored samples. A simultaneously prepared sample among the peptide solutions that was not stored was used as a standard sample (initial sample). The standard sample and the stored samples were stored at -30° C. until sample analysis. Using the total weight of the aqueous peptide solution and storage vessel as the specimen weight, measurements were recorded as the specimen weights before storage and the specimen weights after storage under different storage conditions. The empty weight of the storage vessel was also measured, and the moisture permeability was determined by the following formula. After stirring the standard sample and the stored samples with a vortex mixer, each peptide solution was transferred to an HPLC vial (Deactivated Qsert vial by Waters Co.). Reverse-phase HPLC (HPLC system: Prominence by Shimadzu Corp.) was conducted under the conditions shown in Table 3 below for analysis of the peptide solutions, and chromatograms were obtained. Guard column: XSelect CSH C18 by Waters Co., 5 μm, 4.6×20 mm Guard Cartridge Detection wavelength: 220 nm Mobile phase A: 0.1% formic acid aqueous solution Mobile phase B: 0.1% acetonitrile formate solution Measuring time: 30 minutes Measuring sample injection rate: 50 μL Flow rate: 1.0 mL/min Sample cooler: 4° C. Column temperature: 40° C. Mobile phase delivery: The mixing ratio of mobile phase A and mobile phase B was varied as shown in Table 3 for linear concentration gradient control. The peak area value for the peptide in the chromatogram was calculated, and the remaining rate (remaining rate before correction for water) was calculated using formula (2). The remaining rate after correction for water was also calculated from the remaining rate before correction for water using formula (3), taking into account the moisture permeability of the vessel. Peptides 10 and 11 synthesized in Example 2 were weighed and dissolved in phosphate buffer (pH 7.0) to prepare 1.0 mM peptide solutions. Each solution was filtered with a Chromatdisk (product of Merck Millipore. Millex-GV, 0.22 μm). Each filtrate was diluted to 100 μM with phosphate buffer (pH 7.0) and dispensed into a tube (Protein LoBind Tube by Eppendorf Co.). The prepared peptide solutions were incubated for one month or 2 months in a 40° C. thermostatic bath to obtain stored samples. A simultaneously prepared sample among the peptide solutions that was not stored was used as a standard sample (initial sample). The standard sample and the stored samples were stored at -30° C. until sample analysis. The remaining rate after correction for water for each peptide among the stored samples was measured in the same manner as Example 4, and the results are shown in Table 8.

Compound | remaining rate after correction for water, 60° C., 1 week preservation [1] [%] | remaining rate after correction for water, 60° C., 2 weeks preservation [1] [%] | remaining rate after correction for water, 40° C., 1 month preservation [2] [%] | remaining rate after correction for water, 40° C., 2 months preservation [2] [%]
CC[C@H](C)[C@H](NC(=O)CNC(=O)[C@H](Cc1nnn[nH]1)NC(=O)[C@H](CO)NC(=O)[C@H](Cc1c[nH]cn1)NC(C)=O)C(=O)N[C@@H](Cc1ccccc1)C(=O)N[C@H](C(=O)N[C@@H](Cc1nnn[nH]1)C(=O)N[C@@H](CO)C(=O)N[C@@H](Cc1ccc(O)cc1)C(=O)N[C@@H](CO)C(=O)N[C@@H](CCCNC(=N)N)C(=O)N[C@@H](Cc1ccc(O)cc1)C(=O)N[C@@H](CCCNC(=N)N)C(=O)N[C@@H](CCCCN)C(=O)N[C@@H](CCC(N)=O)C(=O)N[C@@H](CC(C)C)C(=O)N[C@@H](C)C(=O)N[C@H](C(=O)N[C@@H](CCCCN)C(=O)N[C@@H](CCCCN)C(=O)N[C@@H](Cc1ccc(O)cc1)C(=O)N[C@@H](CC(C)C)C(=O)N[C@@H](C)C(=O)N[C@@H](C)C(=O)N[C@H](C(=O)N[C@@H](CC(C)C)C(N)=O)C(C)C)C(C)C)[C@@H](C)O [Peptide 9] (Ac-HS[Ala(1H-tetrazol-5-yl)]GIFT[Ala(1H-tetrazol-5-yl)]SYSRYRKQLAVKKYLAAVL-NH2) | 98.4 | 92.8 | – | –
CC[C@H](C)[C@H](NC(=O)CNC(=O)[C@H](CC(=O)O)NC(=O)[C@H](CO)NC(=O)[C@@H](N)Cc1cnc[nH]1)C(=O)N[C@@H](Cc1ccccc1)C(=O)N[C@H](C(=O)N[C@@H](CC(=O)O)C(=O)N[C@@H](CO)C(=O)N[C@@H](Cc1ccc(O)cc1)C(=O)N[C@@H](CO)C(=O)N[C@@H](CCCNC(=N)N)C(=O)N[C@@H](Cc1ccc(O)cc1)C(=O)N[C@@H](CCCNC(=N)N)C(=O)N[C@@H](CCCCN)C(=O)N[C@@H](CCC(N)=O)C(=O)N[C@@H](CCSC)C(=O)N[C@@H](C)C(=O)N[C@H](C(=O)N[C@@H](CCCCN)C(=O)N[C@@H](CCCCN)C(=O)N[C@@H](Cc1ccc(O)cc1)C(=O)N[C@@H](CC(C)C)C(=O)N[C@@H](C)C(=O)N[C@@H](C)C(=O)N[C@H](C(=O)N[C@@H](CC(C)C)C(N)=O)C(C)C)C(C)C)[C@@H](C)O [Peptide 1, reference compound] | – | – | 37.4 | 21.3
